Data reported in patent US12559474B2, “Triazine derivatives having virus replication inhibitory activity and pharmaceutical composition comprising the same” (priority 2021, dated 2026).
Read-outs that look alike come from different tables or passages of the source.

What was measured:
SARS-CoV-2 = experiment: microbe, parasite or virus in culture; format: cell-based; details: Severe acute respiratory syndrome coronavirus 2, VeroE6/TMPRSS2, 72 h, 50% SARS-CoV-2 infected cell death inhibitory concentration, VeroE6/TMPRSS2 cells, 3 days culture
SARS-CoV-2 3CL protease = SARS-CoV-2 3CL protease (Severe acute respiratory syndrome coronavirus 2, UniProt P0DTD1); experiment: biochemical; details: 50% SARS-CoV-2 3CL protease inhibitory concentration, read-out: IC50

| SMILES | EC50 (SARS-CoV-2; class symbols) [nM] | IC50 (SARS-CoV-2 3CL protease; given as class symbols) [nM] | EC50 (SARS-CoV-2; CellTiter-Glo 2.0) [nM] | IC50 (SARS-CoV-2 3CL protease; RapidFire MS) [nM] |
| --- | --- | --- | --- | --- |
| O=c1[nH]cc(Cl)cc1Cn1c(=O)nc(Nc2cc3cn([C@H]4CCC[C@@H]4O)nc3cc2Cl)n(Cc2cc(F)c(F)c(F)c2)c1=O [Compound I-0251] | 1000 to 10000 | < 100 | – | – |
| COc1ccc(Nc2nc(=O)n(-c3cncc4ccncc34)c(=O)n2Cc2cc(F)c(F)c(F)c2)cc1 [Compound I-0344] | < 1000 | < 100 | – | – |
| CC(C)Nc1nc2cc(Cl)c(Nc3nc(=O)n(Cc4ccc[nH]c4=O)c(=O)n3Cc3cc(F)c(F)c(F)c3)cc2s1 [II-0413] | 1000 to 10000 | < 100 | – | – |
| Cc1cncc(-n2c(=O)nc(Nc3cc4cn(C)nc4cc3Cl)n(Cc3cc(C#N)ccc3Cl)c2=O)c1 [II-0579] | – | – | 67 | 2.1 |
| CNc1nc2cc(F)c(Nc3nc(=O)n(-c4cncc(C)c4)c(=O)n3Cc3cc(F)c(F)cc3F)cc2s1 [II-0501] | < 1000 | < 100 | – | – |
| CC1c2ccccc2CN1c1nc(=O)n(Cc2ccc[nH]c2=O)c(=O)n1Cc1cc(F)c(F)c(F)c1 (centres unmarked) [II-0213] | 1000 to 10000 | < 100 | – | – |
| Cn1cnc(Cn2c(=O)nc(Nc3cc4sc(NCC(F)F)nc4cc3Cl)n(Cc3cc(F)c(F)cc3F)c2=O)n1 [II-0500] | 1000 to 10000 | < 100 | – | – |
| CNC(=O)Cn1cc2cc(Nc3nc(=O)n(-c4cncc(C)c4)c(=O)n3Cc3cc(F)c(F)c(F)c3)c(Cl)cc2n1 [II-0440] | 1000 to 10000 | < 100 | – | – |
| Cn1cnc(Cn2c(=O)nc(Nc3cc4cn(C)nc4cc3Cl)n(Cc3ccc(F)cc3F)c2=O)n1 [II-0202] | 1000 to 10000 | < 100 | – | – |
| Cc1cncc(-n2c(=O)nc(Nc3cc4cn(C)nc4cc3Cl)n(Cc3cc(Cl)ccc3C(F)(F)F)c2=O)c1 [II-0077] | < 1000 | < 100 | – | – |
| COc1ccnc(Cn2c(=O)nc(Nc3cc4cn(C)nc4cc3Cl)n(Cc3cc(F)c(F)cc3F)c2=O)c1 [II-0252] | 1000 to 10000 | < 100 | – | – |
| COc1ccc(Nc2nc(=O)n(-c3cncc(C)c3)c(=O)n2-c2cccc(Cl)c2)cc1 [II-0492] | < 1000 | – | – | 1000 |
| Cc1cncc(-n2c(=O)nc(Nc3cc4cn(C)nc4cc3Cl)n(Cc3cc(C#N)c(F)cc3OCC(C)C)c2=O)c1 [II-0071] | < 1000 | < 100 | – | – |
| O=c1[nH]cccc1Cn1c(=O)nc(Nc2ccc3c(c2)CCO3)n(Cc2cc(F)c(F)c(F)c2)c1=O [Compound I-0025] | 1000 to 10000 | < 100 | – | – |
| O=c1[nH]cccc1Cn1c(=O)nc(Nc2cc3cn(CC(F)(F)F)nc3cc2Cl)n(Cc2cc(F)c(F)c(F)c2)c1=O [II-0505] | 1000 to 10000 | < 100 | – | – |
| Cc1ccc(C#N)cc1Cn1c(Nc2cc3cn(C)nc3cc2Cl)nc(=O)n(-c2cncc(Cl)c2)c1=O [II-0543] | – | – | 87 | 2.8 |
| Cc1cncc(-n2c(=O)nc(Nc3cc4cn(C)nc4cc3Cl)n(Cc3cc(C#N)c(F)cc3CCC(C)C)c2=O)c1 [II-0092] | < 1000 | < 100 | – | – |
| C[C@@H](O)Cn1cc2cc(Nc3nc(=O)n(Cc4ccc[nH]c4=O)c(=O)n3Cc3cc(F)c(F)c(F)c3)c(Cl)cc2n1 [Compound I-0425] | 1000 to 10000 | < 100 | – | – |
| N#Cc1cnc2[nH]c(=O)c(Cn3c(=O)nc(Nc4ccc5c(c4)CCO5)n(Cc4cc(F)c(F)c(F)c4)c3=O)cc2c1 [II-0322] | 1000 to 10000 | < 100 | – | – |
| Cn1nc2cc(Cl)c(Nc3nc(=O)n(-c4cncc5ccccc45)c(=O)n3Cc3cc(F)c(F)c(F)c3)cc2c1F [II-0462] | < 1000 | < 100 | – | – |
| Cc1cncc(-n2c(=O)nc(Nc3cc4c(cc3F)nc(C)n4C)n(Cc3cc(F)c(F)c(F)c3)c2=O)c1 [II-0360] | 1000 to 10000 | < 100 | – | – |
| COc1cncc(-n2c(=O)nc(Nc3cc4cn(C)nc4cc3Cl)n(Cc3cc(F)c(F)c(F)c3)c2=O)c1 [II-0495] | < 1000 | < 100 | – | – |
| Cc1cncc(-n2c(=O)nc(Nc3cc4cn(C)nc4cc3Cl)n(Cc3cc(C#N)ccc3C(F)(F)F)c2=O)c1 [II-0076] | < 1000 | < 100 | – | – |
| COc1ccc(Nc2nc(=O)n(Cc3cc4cccnc4[nH]c3=O)c(=O)n2Cc2cc(F)c(F)c(F)c2)cc1 [Compound I-0084] | 1000 to 10000 | < 100 | – | – |
| CNc1nc2cc(F)c(Nc3nc(=O)n(-c4cncc(C)c4)c(=O)n3Cc3cc(F)c(F)c(F)c3)cc2s1 [II-0291] | 1000 to 10000 | < 100 | – | – |
| Cn1cc2cc(Nc3nc(=O)n(-c4cncc(Cl)c4)c(=O)n3Cc3cc(Cl)c(F)cn3)c(Cl)cc2n1 [II-0592] | 1000 to 10000 | < 100 | – | – |
| Cn1cnc(Cn2cc3cc(Nc4nc(=O)n(Cc5ncn(C)n5)c(=O)n4Cc4cc(Cl)c(F)cc4F)c(Cl)cc3n2)n1 [II-0003] | – | – | 17800 | 6 |
| Cn1cnc(Cn2c(=O)nc(Nc3cc4sc(NCC5CC5)nc4cc3Cl)n(Cc3cc(F)c(F)cc3F)c2=O)n1 [II-0082] | 1000 to 10000 | < 100 | – | – |
